Earlier results, collected in patent publication US20020164314A1, “Ovarian hormone induced neural stem cell increase” (Neurostasis, Inc., priority 2001, published 2002).

What was measured:
[1] = tested on: development of female characteristics in animals
[2] = tested on: proliferating cells in the dentate gyrus
[3] = tested on: SVZ proliferating cells
[4] = corticosterone, Alonso 2000, adult rats

Which results are given for `C[C@]12CC[C@@H]3c4ccc(O)cc4CC[C@H]3[C@@H]1CC[C@@H]2O` [β-estradiol]?
estrogenic potency relative to estriol ([1]; ratio versus estriol): 80 times; estrogenic potency relative to estrone ([1]; ratio versus estrone): 12 times

Which “number of new neurons in the dentate gyrus” value ([2]; Tanapat et al. 1999, adult female) does the source give for Estrogen here?
Its value is “transient increase”.

What about the “proliferation in the dentate gyrus” value ([2]; Tanapat et al. 1999, adult female rat) of the same compound?
Its value is “stimulate proliferation”.

What about the “mitotic activity in the subventricular zone” value ([3]; Tanapat et al. 1999) of the same compound?
Its value is “no mitotic activity”.

With `C[C@]12C[C@H](O)[C@H]3[C@@H](CCC4=CC(=O)CC[C@@]43C)[C@@H]1CC[C@@H]2C(=O)CO` [corticosterone] as the compound, how does the “cell proliferation in the dentate gyrus” value [2, 4] read?
The value was “dramatically decreases”.

And the “effect on the SVZ proliferating cells” value [3, 4]?
Its value is “no effect”.
